Here are results for three compounds from US11261189B2, “Substituted 2,4 diamino-quinoline as new medicament for fibrosis, autophagy and cathepsins B (CTSB), L (CTSL) and D (CTSD) related diseases” (Genoscience Pharma, priority 2018, dated 2022).

One assay has as its target T1, cathepsin B (CTSB) (Homo sapiens, UniProt P07858).
T1 construct: endogenous in cells; host or cells: HepG2
Kind of assay: Cathepsin B (CTSB) catalytic activity in lysates of treated HepG2 cells (Z-RR-AMC substrate). Format: cell-based. The following applies: HepG2; 7.5 μM, 6 hours and 24 hours. The method, then:
(§1) Lysosomal functions was investigated in a hepatocellular carcinoma (HCC) cell line HepG2 after 6 hours and 24 hours of treatment with compound 2-3 (the hydrochloride salt form of compound 2-2) using functional assays of some lysosomal enzymes activity: two cysteine proteinases: cathepsin B (CTSB) and cathepsin L (CTSL), and one aspartic proteinase: cathepsin D (CTSD). Two sets of three concentrations of compound 2-3 (1 μM, 2 μM, and 4 μM for 6 hours, and 0.5 μM, 1 μM and 2 μM for 24 hours) were tested at least in triplicate and four independent experiments were performed. Salinomycin (7.5 μM for 6 hours and 24 hours) was used as a positive control.
(§2) The HepG2 cell line was maintained in DMEM (Dulbecco's Modified Eagle Media) high glucose (Cat #L0103-500, Dutscher) containing 1% penicillin-streptomycin (Cat #P06-07100, Dutscher) and 10% FBS (Fetal Bovine Serum) (Cat #11543407, Life Technologies). Cells were cultured at 37° C. with 5% CO2.
(§3) The day before the experiment, 6-well plates (Cat #353046, Dutscher) with 250,000 cells in 2.7 mL of medium per well were prepared.
(§4) Compound 2-3 was dissolved with filtrated H2O mQ to make a 10 mM stock solution and serial working solutions (10× solutions) were prepared with the diluent (=culture medium with 0.4% H2O mQ) at 5 μM, 10 μM, 20 μM and 40 μM: the “dilution 1” is made from the 10 mM stock solution in the culture medium and the following serial dilutions were made in the diluent to maintain a constant percentage of H2O.
(§5) Salinomycin [CAS 53003-10-4] was used as positive control and was dissolved with methanol to make a 10 mM stock solution and a 10× solution at 75 μM was prepared with the culture medium.
(§6) 300 μL of compound 2-3 10× solutions (solutions at 10 μM, 20 μM and 40 μM for 6 hours of treatment and solutions at 5 μM, 10 μM and 20 μM for 24 hours of treatment) or 300 μL of diluent (=non-treated (NT) condition) or 300 μL of Salinomycin 10× solution were dispensed in the appropriate wells (4 wells/condition). After cells treatment, 6-well plates were returned to incubator for 6 hours or 24 hours.
(§7) After 6 hours or 24 hours of cells treatment, the medium was removed from each well. The cells were carefully rinsed with PBS (phosphate-buffered saline, Cat #L0615-500, Dutscher) and detached with 500 μL per well of a trypsin solution. After 5 min of trypsin (Cat #L0930-100, Dutscher) incubation at 37° C., 800 μL of medium was added per well and transferred to a 1.5 mL tube. Then, 800 μL of PBS was used to rinse each well and the corresponding solution was pooled in each corresponding 1.5 mL tube. […] Total protein concentration was assessed using the Bradford reagent (Cat #B6916-500ML, Sigma-Aldrich) and cellular lysates were stored at −80° C. until catalytic activity measurement. […]

In assay [1] the test system is cathepsins B and L (CTSB/L). Kind of assay: Overall cathepsins B and L (CTSB/L) peptidase activity in lysates of treated HepG2 cells (Z-FR-AMC substrate). The following applies: HepG2; 7.5 μM, 6 hours and 24 hours. Format: cell-based. The protocol: as §1, §2, §3, §4, §5, §6, §7
For a further assay, the target named is T2, cathepsin D (CTSD) (Homo sapiens, UniProt P07339).
T2 construct: cell lysates (1 μg of total proteins) were pre-incubated with citrate buffer pH 4.0; endogenous in cells; host or cells: HepG2
T2 sequence (P07339 65-412): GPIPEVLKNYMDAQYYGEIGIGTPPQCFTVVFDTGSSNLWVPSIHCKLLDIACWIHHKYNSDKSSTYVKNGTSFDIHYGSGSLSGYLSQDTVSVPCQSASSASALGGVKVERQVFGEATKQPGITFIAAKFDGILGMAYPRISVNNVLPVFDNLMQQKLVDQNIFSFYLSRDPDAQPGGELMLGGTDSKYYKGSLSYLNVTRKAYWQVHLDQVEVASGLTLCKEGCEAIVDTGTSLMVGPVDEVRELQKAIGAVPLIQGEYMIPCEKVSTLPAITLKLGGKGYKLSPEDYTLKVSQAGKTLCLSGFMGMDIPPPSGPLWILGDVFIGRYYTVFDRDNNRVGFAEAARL
Kind of assay: Cathepsin D (CTSD) peptidase activity in lysates of treated HepG2 cells (MOCAc quenched fluorogenic substrate). Format: cell-based. The following applies: HepG2; 7.5 μM, 6 hours and 24 hours. The protocol: as §1, §2, §3, §4
Salinomycin [CAS 53003-10-4] was used as positive control and was dissolved with methanol to make a 10 mM stock solution and a 10× solution at 75 μM was prepared with the culture medium. […]
After 6 hours or 24 hours of cells treatment, the medium was removed from each well. […] Total protein concentration was assessed using the Bradford reagent (Cat #B6916-500ML, Sigma-Aldrich) and cellular lysates were stored at −80° C. until catalytic activity measurement. […]

For assay [2], the system named is diethyl nitrosamine (DEN) cirrhotic rat model of liver fibrosis. As to the kind of experiment: DEN induced cirrhosis in rats, study 1: Sirius red quantification of liver fibrosis. Format: in vivo. The following applies: group 2: Sorafenib 10 mg/kg/day p.o. q.d., 6 weeks after 14 weeks DEN. The source says:
This animal model allows developing an extensive liver fibrosis, leading to a compensated liver cirrhosis with a multifocal hepatocarcinoma (HCC) after 14 weeks of induction (Schiffer, E. et al. Hepatology 2005 (41), 307-314). The DEN cirrhotic rat animal model was used here as a specific animal model of liver fibrosis.
Forty two Fisher 344 male rat (obtained from Charles River Laboratories France, including spare animals), weighting approximately 280 g at the start of the study, were randomized in 5 groups of 8 (groups 1, 2, 3 and 5) or 6 (group 4) animals and housed with 3 animals per cage, given free access to food and water and allowed to acclimate for at least 5 days prior to test initiation.
The DEN cirrhotic rat model was obtained after 14 weekly intraperitoneal injections of DEN (intra-peritoneal injections (i.p.) of DEN at 50 mg/kg/week). The animals were then treated according to Table 9 during 6 weeks. In this in vivo experiment, the anti-fibrotic activity of compound 2-3 was evaluated in liver fibrosis animal model, alone or in combination with Sorafenib (a multikinase inhibitor of Raf-1, B-Raf, VEGFR-2, VEGFR3, PDGFRβ, Flt3 and c-Kit). After 6 weeks of treatment, all animals were sacrificed using CO2 and rat livers were collected for analysis. The quantification of the liver fibrotic tissue was evaluated by Sirius red staining of rat liver sections.
Group 1 contained 8 animals which were daily dosed (q.d.) by oral gavage (per os, p.o.) with the vehicle during 6 weeks.
Group 2 contained 8 animals which were daily dosed (q.d.) by oral gavage (per os, p.o.) with Sorafenib at 10 mg/kg/day during 6 weeks.
Group 3 contained 8 animals which were daily dosed (q.d.) by oral gavage (per os, p.o.) with compound 2-3 at 15 mg/kg/day during 6 weeks.
Group 4 contained 6 animals which were daily dosed (q.d.) by oral gavage (per os, p.o.) with compound 2-3 at 15 mg/kg/day in combination with Sorafenib at 10 mg/kg/day during 6 weeks.
Group 5 contained 8 animals which were daily dosed (q.d.) by oral gavage (per os, p.o.) with compound 2-3 at 30 mg/kg/day during 6 weeks. […]

The test system is the same in assay [3]. Kind of assay: DEN induced cirrhosis in rats, study 2: Sirius red quantification of liver fibrosis. Format: in vivo. Particulars: group 4 (20/15): 20 mg/kg/day p.o. 4 weeks then 15 mg/kg/day 3 weeks; p=0.03. The protocol:
A second in vivo experiment, with the same diethyl nitrosamine (DEN) cirrhotic rat animal model of liver fibrosis, was performed including compound 2-2 (base form of compound 2-3) with discontinued oral dosing schedule and compound 5-3 with daily oral exposure. Compounds 2-2 and 5-3 were administered p.o. by gavage (oral gavage) once daily during 7 weeks.
Rats were treated with DEN for 13 weeks (intra-peritoneal injections (i.p.) of 50 mg/kg/week) and then treated according to the Table 10 dosage schedule during 7 weeks. At the end of the study, all animals were sacrificed using CO2 and rat livers were collected for analysis. The quantification of the liver fibrotic tissue was evaluated by Sirius red staining of rat liver sections.
Group 1 contained 6 animals which were daily dosed (q.d.) by oral gavage (per os, p.o.) with the vehicle during 7 weeks.
Group 2 contained 8 animals and the corresponding animals were daily dosed (q.d.) by oral gavage (per os, p.o.) with compound 2-2 during 4 weeks at 20 mg/kg/day and then during 3 weeks at 20 mg/kg every 2 days (q.o.d.: quaque altera die, one day treated, on day untreated).
Group 3 contained 8 animals and the corresponding animals were daily dosed (q.d.) by oral gavage (per os, p.o.) with compound 2-2 during 3 weeks at 20 mg/kg/day, then 2 weeks of treatment free period, and were then daily dosed (q.d.) by oral gavage (per os, p.o.) with compound 2-2 during 2 weeks at 20 mg/kg/day.
Group 4 contained 8 animals and the corresponding animals were daily dosed (q.d.) by oral gavage (per os, p.o.) with compound 5-3 during 4 weeks at 20 mg/kg/day, and were then daily dosed (q.d.) by oral gavage (per os, p.o.) with compound 5-3 during 3 weeks at 15 mg/kg/day.
Compound 2-2 and 5-3 were formulated in water for injection acidified with hydrochloric acid to pH 4.

For `CC[C@@H](C(=O)[C@@H](C)[C@@H](O)[C@H](C)[C@@H]1O[C@@H]([C@@H](CC)C(=O)O)CC[C@@H]1C)[C@H]1O[C@]2(C=C[C@@H](O)[C@]3(CC[C@@](C)([C@H]4CC[C@](O)(CC)[C@H](C)O4)O3)O2)[C@H](C)C[C@@H]1C` [Salynomycin, Salinomycin, reference compound], at cathepsin B (CTSB), the “proteolytic activity of cathepsin B (positive control)” value was “significantly decreased”. Further, in assay [1], the “proteolytic activity of cathepsins B/L (positive control)” value is given as “significantly decreased”. Moreover, at cathepsin D (CTSD), the “proteolytic activity of cathepsin D (positive control)” value is reported as “significantly decreased”. With `CNC(=O)c1cc(Oc2ccc(NC(=O)Nc3ccc(Cl)c(C(F)(F)F)c3)cc2)ccn1` [Sorafenib, reference compound], the “reduction of the level of collagen fibers deposition (Sirius red) compared to the control group” value in assay [2] amounted to 13.6%. For `CC(C)(C)NC1CCN(c2cc(NCc3ccc(F)cc3)nc3ccccc23)CC1` [5-3, 2-(4-fluorobenzylamino)-4-(4-tert-butylaminopiperidin-1-yl)-quinoline], the “reduction of the level of collagen fibers deposition (Sirius red) compared to the control group” value in assay [3] is reported as 24%.
